In the test the test system is T1, plasma membrane H+-ATPases of wild-type FB2 (Pma1 and Pma2).
T1 construct: native enzymes in isolated plasma membrane fraction of wild-type sporidia; both pumps present; vanadate-sensitive ATPase activity
In words: Pi release (Fiske-Subbarow), vanadate-sensitive ATPase activity of plasma membrane fraction, Michaelis-Menten fit. In kind it is biochemical, Mycosarcoma maydis. The settings on record: MES pH 6.5, 5 mM MgCl2, 30 °C, ATP regenerating system (phosphoenolpyruvate / pyruvate kinase), NaN3, KNO3, Pma1 and Pma2 together, rounded value for all strains, exact value in figure.

Data on one compound can be found in publication PMC9225265, “Functional Analysis of the Plasma Membrane H^+-ATPases of Ustilago maydis” (Journal of Fungi, 2022).

Consider `Nc1ncnc2c1ncn2[C@@H]1O[C@H](COP(=O)(O)OP(=O)(O)OP(=O)(O)O)[C@@H](O)[C@H]1O` [Mg-ATP], for which the Km (usually the substrate concentration at which the rate is half of its maximum) was roughly 2000 µM.
